doi:10.1101/2025.05.27.25328359, “OSBPL11 is an African-specific locus associated with 25-hydroxyvitamin D concentrations and cardiometabolic health” (medRxiv, 2025)

Target: T1, OSBPL11 (OSBPL11-myc-His) (Homo sapiens, UniProt Q9BXB4)
T1 construct: full length, C-terminal myc-His tag (pcDNA3.1(+)myc/his C), transiently expressed in 293T cells; 100,000 g supernatant (S100) of lysate, not purified
T1 sequence (Q9BXB4 1-747): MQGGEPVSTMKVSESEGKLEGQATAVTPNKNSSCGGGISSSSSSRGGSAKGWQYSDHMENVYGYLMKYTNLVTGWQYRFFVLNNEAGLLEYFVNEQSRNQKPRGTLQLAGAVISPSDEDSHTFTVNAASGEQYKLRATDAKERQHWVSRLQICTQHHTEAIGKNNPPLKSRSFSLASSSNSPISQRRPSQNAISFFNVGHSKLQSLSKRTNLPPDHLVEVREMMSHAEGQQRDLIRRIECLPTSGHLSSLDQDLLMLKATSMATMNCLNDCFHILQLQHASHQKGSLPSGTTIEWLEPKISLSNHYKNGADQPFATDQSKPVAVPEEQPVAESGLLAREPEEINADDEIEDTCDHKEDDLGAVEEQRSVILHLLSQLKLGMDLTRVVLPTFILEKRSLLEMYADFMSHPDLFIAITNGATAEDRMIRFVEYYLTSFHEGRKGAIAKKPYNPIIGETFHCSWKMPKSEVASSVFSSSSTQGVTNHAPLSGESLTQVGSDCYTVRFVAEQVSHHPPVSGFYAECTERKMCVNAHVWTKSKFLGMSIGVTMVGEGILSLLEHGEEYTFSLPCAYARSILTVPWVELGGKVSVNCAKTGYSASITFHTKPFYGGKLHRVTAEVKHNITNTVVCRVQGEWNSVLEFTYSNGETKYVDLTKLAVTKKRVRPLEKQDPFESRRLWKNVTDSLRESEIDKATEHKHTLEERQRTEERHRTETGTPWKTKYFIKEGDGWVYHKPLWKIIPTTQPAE
Experiment: [3H]-25-hydroxycholesterol competition binding, charcoal/dextran, S100 lysate
Type: biochemical

## C[C@H](CCCC(C)(C)O)[C@H]1CC[C@H]2[C@@H]3CC=C4C[C@@H](O)CC[C@]4(C)[C@H]3CC[C@]12C [25-hydroxycholesterol]
  Ki: 32 nM
